Tests used:
[1] = test system: CCRF-CEM; assay: Cytotoxicity against human CCRF-CEM cells assessed as reduction in cell viability after 72 hrs by resazurin dye based assay; type: functional
[2] = test system: ADR5000 cell line; assay: Cytotoxicity against human CEM/ADR5000 cells over-expressing P-gp assessed as reduction in cell viability after 72 hrs by resazurin dye based assay; type: functional
[3] = test system: Human betaherpesvirus 5; assay: Antiviral activity against GFP-fused Human cytomegalovirus AD169 infected in primary HFF; type: functional, organism-based; conditions: Human betaherpesvirus 5, AD169, HFF
[4] = test system: ADR5000 cell line; assay: Potency index, ratio of doxorubicin EC50 to compound EC50 for human CEM/ADR5000 cells over-expressing P-gp; type: functional
[5] = test system: Plasmodium falciparum; assay: Antimalarial activity against Plasmodium falciparum 3D7 infected in human erythrocytes after 72 hrs by SYBR green dye fluorescence assay; type: functional, organism-based; conditions: 3D7, 72 h
[6] = test system: Human betaherpesvirus 5; assay: Potency index, ratio of gancyclovir EC50 to compound EC50 for GFP-fused Human cytomegalovirus AD169 infected in primary HFF; type: functional
[7] = test system: Plasmodium falciparum; assay: Potency index, ratio of artesunic acid EC50 to compound EC50 for Plasmodium falciparum 3D7 infected in human erythrocytes; type: functional
[8] = Homo sapiens, CCRF-CEM, 72 h, read-out: EC50
[9] = Homo sapiens, ADR5000, 72 h, read-out: EC50

COc1cc(CCCOC(=O)CCC(=O)O[C@@H]2O[C@@H]3O[C@@]4(C)CC[C@H]5[C@H](C)CC[C@@H]([C@H]2C)[C@@]35OO4)cc2cc(-c3ccc4c(c3)OCO4)oc12
EC50 [1, 8]: 180 nM
EC50 [2, 9]: 1120 nM
EC50 [3]: 870 nM
Ratio EC50 [4]: <=104

COc1ccc(-c2cc3cc(CCCO)cc(OC)c3o2)cc1OC
EC50 ([1]; ccrf-cem): Not Active
EC50 ([2]; adr5000): Not Active
EC50 [5]: 26500 nM
EC50 [3]: 1280 nM

COc1ccc(-c2cc3cc(CCCO[C@H]4O[C@@H]5O[C@@]6(C)CC[C@H]7[C@H](C)CC[C@@H]([C@H]4C)[C@@]57OO6)cc(OC)c3o2)cc1OC
EC50 [1, 8]: 72 nM
EC50 [2, 9]: 630 nM
EC50 [5]: 6.5 nM
EC50 [3]: 130 nM
Ratio EC50 [4]: <=104
Ratio EC50 [6]: 20

COc1cc(CCCO[C@H]2O[C@@H]3O[C@@]4(C)CC[C@H]5[C@H](C)CC[C@@H]([C@H]2C)[C@@]35OO4)cc2cc(-c3ccc4c(c3)OCO4)oc12
EC50 [1, 8]: 99 nM
EC50 [2, 9]: 400 nM
EC50 [5]: 28.3 nM
EC50 [3]: 170 nM
Ratio EC50 [4]: <=104

COc1cc(CCCOC(=O)C[C@H]2O[C@@H]3O[C@@]4(C)CC[C@H]5[C@H](C)CC[C@@H]([C@H]2C)[C@@]35OO4)cc2cc(-c3ccc4c(c3)OCO4)oc12
EC50 [1, 8]: 568 nM
EC50 [2, 9]: 582 nM
EC50 [5]: 13.3 nM
EC50 [3]: 240 nM
Ratio EC50 [4]: <=104

C[C@H]1[C@H](OC(=O)CCC(=O)OCC#CCOC(=O)CCC(=O)O[C@@H]2O[C@@H]3O[C@@]4(C)CC[C@H]5[C@H](C)CC[C@@H]([C@H]2C)[C@@]35OO4)O[C@@H]2O[C@@]3(C)CC[C@H]4[C@H](C)CC[C@@H]1[C@@]24OO3
EC50 [5]: 3.8 nM
EC50 [3]: 940 nM
Ratio EC50 [7]: 2
Ratio EC50 [6]: 6

COc1cc(CC/C=N/C2=C(C)C(=O)C=C(C(C)C)C2=O)cc2cc(-c3ccc4c(c3)OCO4)oc12
EC50 [1, 8]: 43700 nM
EC50 [2, 9]: 17400 nM
EC50 [5]: 1190 nM
Ratio EC50 [4]: <=104

COc1cc(CCCOC(=O)CCCc2ccc(N(CCCl)CCCl)cc2)cc2cc(-c3ccc4c(c3)OCO4)oc12
EC50 [5]: 23200 nM
EC50 [3]: 2900 nM

C[C@@H]1CC[C@H]2[C@@H](C)C(=O)O[C@@H]3O[C@@]4(C)CC[C@@H]1[C@]32OO4 [ARTEMISININ]
EC50 [1, 8]: 36900 nM
EC50 [2, 9]: 26900 nM

C[C@H]1[C@@H](O)O[C@@H]2O[C@@]3(C)CC[C@H]4[C@H](C)CC[C@@H]1[C@@]24OO3 [ARTENIMOL]
EC50 [1, 8]: 85 nM
EC50 [2, 9]: 265 nM
EC50 [5]: 2.4 nM
EC50 [3]: > 10000 nM

C[C@H]1[C@H](OC(=O)CCC(=O)O)O[C@@H]2O[C@@]3(C)CC[C@H]4[C@H](C)CC[C@@H]1[C@@]24OO3 [ARTESUNATE]
EC50 [1, 8]: 69 nM
EC50 [2, 9]: 189 nM
EC50 [5]: 9.7 nM
EC50 [3]: 5410 nM

CCN(CC)CCCC(C)Nc1ccnc2cc(Cl)ccc12 (stereo unspecified) [CHLOROQUINE]
EC50 [5]: 9.8 nM

COc1cccc2c1C(=O)c1c(O)c3c(c(O)c1C2=O)C[C@@](O)(C(=O)CO)C[C@@H]3O[C@H]1C[C@H](N)[C@H](O)[C@H](C)O1 [DOXORUBICIN]
EC50 [1, 8]: 15 nM
EC50 [2, 9]: 41500 nM

COc1cc(CCCO)cc2cc(-c3ccc4c(c3)OCO4)oc12 [EGONOL]
EC50 [1, 8]: 24700 nM
EC50 [2, 9]: 26800 nM
EC50 [5]: 7500 nM
EC50 [3]: 2380 nM

Nc1nc2c(ncn2COC(CO)CO)c(=O)[nH]1 [GANCICLOVIR]
EC50 [3]: 2600 nM

CC1=CC(=O)C(C(C)C)=CC1=O [THYMOQUINONE]
EC50 [1, 8]: 300 nM
EC50 [2, 9]: 300 nM
EC50 [5]: > 80000 nM
EC50 [3]: > 10000 nM

Source: ChEMBL document CHEMBL4118267, “Access to new highly potent antileukemia, antiviral and antimalarial agents via hybridization of natural products (homo)egonol, thymoquinone and artemisinin” (Bioorg Med Chem, 2018)
